The values below come from ChEMBL document CHEMBL4765461, “Why All the Fuss about Oxidative Phosphorylation (OXPHOS)?” (J Med Chem, 2020).

One may read the IC50 as the concentration that gives 50% inhibition. For orientation: IC20 means the concentration needed for an effect of 20%. Higher therefore signals a need for much substance. In general, bioavailability refers to the share of a dose that reaches the circulation, judged against a reference dose that is usually intravenous. Read a high bioavailability as good availability. The term Ki denotes a dissociation constant, usually derived from enzyme kinetics or from competition with a known ligand. For orientation: EC50 means the concentration giving half of the maximal effect. As usually defined, the Cmax is the peak of the concentration-time curve. Broadly, the half-life is how long it takes for the measured level to halve.

Data set [1] can be described thus: Inhibition of mitochondrial complex 1 in bovine heart mitochondria incubated for 3 hrs and measured up to 30 mins by colorimetric method.
Data set [2] in a line: Inhibition of mitochondrial complex 1 in human A549 cells assessed as oxygen consumption rate by seahorse analysis. Type of data set: cell-based.
Data set [3] has as its target cAMP and cAMP-inhibited cGMP 3',5'-cyclic phosphodiesterase 10A (Homo sapiens) (UniProt Q9Y233). Description: Inhibition of PDE10A (unknown origin).
Data set [4] can be described thus: Inhibition of mitochondrial complex 1 in human NCI-H460 cells assessed as reduction in oxygen consumption rate by seahorse analysis. The data set is classed as cell-based.
A short description of data set [5]: Oral bioavailability in ICR mouse at 30 mg/kg. Type of data set: ADME, organism-based. Conditions: in vivo.
Data set [6] can be described thus: Ratio of drug level in ICR mouse brain to plasma at 30 mg/kg, po by LC-MS analysis. The data set is classed as ADME, organism-based. The settings on record: read-out: BPR.
Data set [7] can be described thus: Inhibition of yeast mitochondrial F0F1-ATP synthase by LDH/pyruvate kinase coupled enzyme assay. Details: species or system Saccharomyces cerevisiae.
Data set [8] can be described thus: Inhibition of F0F1-ATP synthase in yeast intact mitochondria by LDH/pyruvate kinase coupled enzyme assay. Details: species or system Saccharomyces cerevisiae.
Data set [9] can be described thus: Inhibition of mitochondrial complex 1 in Sprague-Dawley rat heart mitochondria by spectrophotometric method.
Data set [10] can be described thus: Inhibition of mitochondrial complex 1 in human MiaPaCa-2 cells assessed as reduction in oxygen consumption incubated for 24 hrs. Type of data set: cell-based. The settings on record: mia paca-2.
A short description of data set [11]: Antiproliferative activity against human H2030-BrM3 cells by IncuCyte live-cell imaging assay. The data set is classed as functional, cell-based.
Data set [12] has as its system A549. Description: Antiproliferative activity against human A549 cells by IncuCyte live-cell imaging assay. The data set is classed as functional, cell-based.
Data set [13] concerns MCF7. Description: Inhibition of mammosphere formation in human MCF7 cells incubated for 5 days. The data set is classed as functional, cell-based. The settings on record: MCF7, 120 h.
Data set [14] can be described thus: Inhibition of Cytochrome b-c1 complex I304M/R306K double mutant in Rhodobacter capsulatus MT-RBC1.
The nature of data set [15]: Inhibition of mitochondrial complex 1 in human NCI-H460 cells assessed as reduction in cell proliferation incubated for 48 hrs under galactose containing medium by cell titer glow assay. The data set is classed as cell-based. The settings on record: NCI-H460, 48 h. In general terms: Cellular ATP, detected with luciferase, serves as a proxy for viable cell number.
Data set [16] can be described thus: Inhibition of mitochondrial complex 1 in human PC-3 cell mitochondria assessed as reduction in oxygen consumption using glutamate/malate/ADP as substrate by oxygen sensitive fluorescent dye based assay.
A short description of data set [17]: Cmax in CD1 mouse plasma at 10 mg/kg, ip by LC/MS/MS analysis. The data set is classed as ADME, organism-based. Set-up: route intraperitoneal, dose 10 mg/kg.
A short description of data set [18]: Half life in mouse plasma incubated up to 1440 mins by mass spectrometric analysis. Type of data set: ADME, cell-free.
Data set [19] can be described thus: Half life in CD1 mouse plasma at 10 mg/kg, ip by LC/MS/MS analysis. Type of data set: ADME, organism-based.
Data set [20] in a line: Inhibition of mitochondrial complex1 (unknown origin). Details: species or system Homo sapiens.
Data set [21] can be described thus: Inhibition of mitochondrial pyruvate carrier in Wistar rat liver mitochondria assessed as reduction in [1-14C]pyruvate uptake preincubated for 2 mins followed by rotenone and [1-14C]pyruvate addition by scintillation counting method.
A short description of data set [22]: Half life in ICR/CD-1 mouse S9 fraction incubated for 0 to 240 mins in presence of NADPH regenerating system by HPLC/MS analysis. Type of data set: ADME, subcellular. Conditions: time 0-240 min.
Data set [23] is described as follows: Growth inhibition of mouse GBM cells incubated for 4 days by Celltiter glo assay. Type of data set: functional, cell-based. The settings on record: 96 h.
Data set [24] concerns GBM. Description: Growth inhibition of patient derived GBM cells incubated for 4 days by Celltiter glo assay. The data set is classed as functional, cell-based. Conditions: Homo sapiens, 96 h.

cAMP and cAMP-inhibited cGMP 3',5'-cyclic phosphodiesterase 10A (Homo sapiens), sequence (Q9Y233 whole entry): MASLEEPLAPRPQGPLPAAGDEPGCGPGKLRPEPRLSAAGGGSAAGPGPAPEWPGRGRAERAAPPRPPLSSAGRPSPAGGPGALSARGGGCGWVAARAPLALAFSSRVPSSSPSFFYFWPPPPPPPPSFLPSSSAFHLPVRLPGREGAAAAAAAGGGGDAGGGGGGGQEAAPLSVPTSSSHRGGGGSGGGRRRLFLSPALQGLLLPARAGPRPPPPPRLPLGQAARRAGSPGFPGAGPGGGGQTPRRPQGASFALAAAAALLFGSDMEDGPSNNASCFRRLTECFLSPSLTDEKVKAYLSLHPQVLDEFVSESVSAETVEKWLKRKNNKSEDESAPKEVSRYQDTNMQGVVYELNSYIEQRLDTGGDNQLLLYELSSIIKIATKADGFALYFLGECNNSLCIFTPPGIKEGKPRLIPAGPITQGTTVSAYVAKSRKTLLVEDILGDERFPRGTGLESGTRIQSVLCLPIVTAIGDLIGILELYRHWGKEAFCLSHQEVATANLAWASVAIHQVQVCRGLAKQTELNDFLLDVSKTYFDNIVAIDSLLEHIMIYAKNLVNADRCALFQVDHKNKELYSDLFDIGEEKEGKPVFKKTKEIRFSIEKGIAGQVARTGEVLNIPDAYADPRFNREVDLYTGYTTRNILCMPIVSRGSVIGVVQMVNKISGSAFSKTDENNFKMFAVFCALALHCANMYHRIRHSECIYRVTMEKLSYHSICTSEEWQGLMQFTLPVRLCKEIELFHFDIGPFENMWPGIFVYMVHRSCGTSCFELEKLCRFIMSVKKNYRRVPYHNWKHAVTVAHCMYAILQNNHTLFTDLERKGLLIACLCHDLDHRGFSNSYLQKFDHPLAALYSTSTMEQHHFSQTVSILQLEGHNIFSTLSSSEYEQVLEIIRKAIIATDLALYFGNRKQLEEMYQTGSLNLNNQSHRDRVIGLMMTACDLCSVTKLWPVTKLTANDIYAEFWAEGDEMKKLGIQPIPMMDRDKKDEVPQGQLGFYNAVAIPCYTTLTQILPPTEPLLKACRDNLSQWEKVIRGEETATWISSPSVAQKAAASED

In turn, `FC(F)(F)c1ccc(/C=C/c2nc(COc3ccc(CCCCn4ccnn4)cc3)co2)cc1` [MUBRITINIB] came in with a half-inhibitory concentration (IC50) in [1] of 0.051 µM.

Regarding `COc1ccc(Cc2nccc3cc(OC)c(OC)cc23)cc1OC` [PAPAVERINE], in data set [2], the half-maximal inhibitory concentration (IC50) amounted to 15.4 µM. For the same molecule, the 20% effect level in [3] (IC20) was put at 0.65 µM.

As for `Cc1nc(-c2nc(-c3ccc(OC(F)(F)F)cc3)no2)nn1Cc1cccc(N2CCC(S(C)(=O)=O)CC2)c1`, the IC50 in [4] was 0.0014 µM.

Molecule `N=C(NC(=N)N1CCCC1)Nc1ccc(OC(F)(F)F)cc1` [LIXUMISTAT] came in with a bioavailability in [5] of 72.9%. In addition, the Kp in data set [6] is 0.37.

Take `COC[C@@H](C[C@H]1O[C@@](O)([C@H](O)[C@@H]2C[C@H](OC)[C@@H](O)CC/C=C(C)/C=C/[C@@H](O[C@@H]3O[C@@H](C)[C@H](OC)[C@@H](O)[C@@H]3O)[C@H](C)/C=C(C)/C=C(C)/C=C(\C)C(=O)O2)[C@H](C)[C@@H](O)[C@H]1C)O[C@H]1C[C@](C)(O)[C@@H](O[C@H]2C[C@@H](OC)[C@H](O)[C@@H](C)O2)[C@H](C)O1`: the Ki was 4 µM in data set [7] and 5 µM in [8].

For the molecule `Cc1ccc(Sc2cccc3[nH]c4nc(N)nc(N)c4c23)cc1`, the IC50 in [9] was determined as 9.9 µM.

`N=C(N)NC(=N)NCCCCCCCCCC[P+](c1ccccc1)(c1ccccc1)c1ccccc1`: in data set [10], the IC50 was 0.4 µM.

With `CN(C)C(=N)NC(=N)N` [METFORMIN], the IC50 in data set [10] stood at 1100 µM; in data set [11], 139 µM; in [12], 208 µM. Further, the Kp in data set [6] came to 0.1.

For `O=C1C(O)=C([C@H]2CC[C@H](c3ccc(Cl)cc3)CC2)C(=O)c2ccccc21` [ATOVAQUONE], the figures for the IC50 in data set [13] and in data set [14] were 1 µM and 0.01 µM, respectively.

With `Cc1cc(-c2nc(-c3ccc(OC(F)(F)F)cc3)no2)nn1Cc1ccnc(N2CCN(C3CC3)CC2)c1`, the EC50 in data set [15] was found to be 0.003 µM. In [16], the IC50 was determined as 0.01 µM.

Molecule `CC(C)[C@@H]1CC[C@@H](C)C[C@H]1OC(=O)Cn1c(-c2cccc(C(F)(F)F)c2)[n+](C)c2ccccc21.[I-]` had a Cmax in data set [17] of 375 ng/g. The values for the half-life in [18] and in data set [19] were 5.1 h and 15.2 h, respectively.

As to `O=C(NCCCCCCCCCC[P+](c1ccccc1)(c1ccccc1)c1ccccc1)c1nn(Cc2ccc(Cl)cc2Cl)c2ccccc12`, the IC50 in [11] was found to be 0.74 µM; in data set [12], 0.69 µM.

For the molecule `C=C(C)[C@H]1Cc2c(ccc3c2O[C@@H]2COc4cc(OC)c(OC)cc4[C@@H]2C3=O)O1` [ROTENONE], in [20], the IC50 amounted to 0.1 µM.

For `O=C(O)c1nn(Cc2ccc(Cl)cc2Cl)c2ccccc12` [LONIDAMINE], the Ki in data set [21] worked out at 2.5 µM.

Take `COc1cc2ccnc(Cc3cccc4ccccc34)c2cc1OC`: the IC50 in data set [2] stood at 7.2 µM. For the same molecule, the IC20 in [3] is 13.4 µM.

Turning to `CCc1n(CC(=O)O[C@@H]2C[C@H](C)CC[C@H]2C(C)C)c2ccccc2[n+]1C.[Cl-]`, the results for the half-life in data set [22] and in [18] were 3.62 h and 0.0667 h, respectively. Also, the figures for the IC50 in data set [23] and in data set [24] were 0.15 µM and 1 µM, respectively.
